These results are taken from patent publication US7164002B2, “FVIIa antagonists” (Genentech, Inc., priority 2002, dated 2007).

The target in assay [1] is T1, TF-FVIIa (Homo sapiens, UniProt P08709). To be noted: literature, cited from earlier work; for maximal inhibition of FX activation: saturating concentrations of peptide.
Target sequence in this assay (P13726 33-275 partner limits assumed, one chain of several): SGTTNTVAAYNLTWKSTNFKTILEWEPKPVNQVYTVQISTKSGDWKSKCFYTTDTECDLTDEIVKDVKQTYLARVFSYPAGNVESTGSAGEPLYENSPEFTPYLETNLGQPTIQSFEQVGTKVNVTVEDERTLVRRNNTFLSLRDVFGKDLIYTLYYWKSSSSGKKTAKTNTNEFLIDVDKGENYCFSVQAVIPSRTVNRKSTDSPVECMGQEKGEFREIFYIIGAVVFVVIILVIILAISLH
The target in assay [2] is T1, TF-FVIIa. The following applies: literature, cited from earlier work; for maximal extent of inhibition of the amidolytic activity: saturating concentrations of peptide.
Target sequence in this assay (P13726 33-251 partner limits assumed, one chain of several): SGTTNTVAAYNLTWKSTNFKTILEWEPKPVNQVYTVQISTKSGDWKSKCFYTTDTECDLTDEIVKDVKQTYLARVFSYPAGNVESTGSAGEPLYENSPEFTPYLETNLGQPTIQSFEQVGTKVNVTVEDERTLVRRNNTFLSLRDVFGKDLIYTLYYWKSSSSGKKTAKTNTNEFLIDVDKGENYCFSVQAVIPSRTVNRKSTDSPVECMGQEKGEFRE
In assay [3] the test system is citrated pooled normal human plasma. Nature of the assay: Prothrombin time (PT) clotting assay initiated by TF and Ca2+. The assay is classed as biochemical. To be noted: Innovin.
Method: The prothrombin time (PT) assay was performed in citrated pooled normal human plasma as described previously (Dennis, M. S., et al., (2000) Nature, 404: 465–470). Clotting times were determined using an ACL 300 Coagulation Analyzer (Coulter Corp., Miami, Fla.) using Innovin (human relipidated TF and Ca2+) from Dade International Inc. to initiate the assay.
Assay [4] has as its target T2, FVIIa (Homo sapiens, UniProt P08709).
T2 sequence (P08709 213-466 limits assumed): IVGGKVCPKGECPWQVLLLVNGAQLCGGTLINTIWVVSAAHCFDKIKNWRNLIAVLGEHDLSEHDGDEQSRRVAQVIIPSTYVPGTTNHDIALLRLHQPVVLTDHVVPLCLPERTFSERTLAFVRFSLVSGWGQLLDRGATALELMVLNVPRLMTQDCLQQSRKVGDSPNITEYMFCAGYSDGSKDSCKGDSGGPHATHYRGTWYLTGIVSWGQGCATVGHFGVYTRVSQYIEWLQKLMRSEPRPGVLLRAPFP
T2 sequence (P08709 61-212 limits assumed): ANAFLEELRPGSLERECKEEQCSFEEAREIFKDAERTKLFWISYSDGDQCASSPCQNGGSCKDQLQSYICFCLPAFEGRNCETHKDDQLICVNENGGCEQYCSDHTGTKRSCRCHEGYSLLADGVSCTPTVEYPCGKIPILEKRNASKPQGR
To be noted: pH 7.2; read-out: binding constant Kd to FVIIa; cited from earlier work.

Assay [5] has as its target T1, TF-FVIIa. Nature of the assay: Inhibition of TF-FVIIa catalyzed activation of FX. The following applies: saturating peptide. The assay is classed as biochemical.
Target sequence in this assay (P13726 33-275 partner limits assumed, one chain of several): as the sequence (P13726 33-275 partner limits assumed, one chain of several) above
Method: Inhibition of FX activation by TF-VIIa was determined with 300 pM relipidated TF1-243, 20 pM FVIIa , and 165 nM FX at 25° C. as a function of peptide concentration essentially as described (Dennis, M. S., et al., (2000) Nature, 404: 465–470; Kelley, R. F., et al., (1997) Blood, 89: 3219–3227). TF was incorporated into phospholipid vesicles and quantified as previously described (Kelley, R. F., et al., (1997) Blood, 89: 3219–3227). The linear rates of FXa generation can be expressed as mOD405/min/min or as fractional activities (vi/v0).

EEWEVACWTWETCER [Peptide E-76]: in assay [1], the “IC50 for inhibition of activation of FX to FXa by TF-FVIIa” value is on record as “nanomolar range” and the “maximal inhibition of FX activation” value is given as 90%. Moreover, the “maximal extent of inhibition of the amidolytic activity” value in assay [2] is on record as 50%.
EEWEVLCWTWETCER [Peptide A-183]: the “fold prolongation of the clotting time” value in assay [3] turned out to be 1.6 fold. In addition, in assay [1], the “IC50 for inhibition of activation of FX to FXa by TF-FVIIa” value was “nanomolar range” and the “maximal inhibition of FX activation” value was 78%. In assay [2], the “inhibition of amidolytic activity (in words)” value is listed as “potent but incomplete inhibition” and the “maximal extent of inhibition of the amidolytic activity” value is reported as 32%. The Kd (as a rule, the free concentration of one partner at which half of the binding sites on the other are occupied at equilibrium, for simple one-to-one binding) in assay [4] was 2.8 nM.
Z-GGSGGDDDDK-EEWEVLCWTWETCER [Z-A-183]: in assay [5], the “extent of inhibition of FX activation upon saturation” value is reported as 80%.
